Common to all, as to type: cell-based
Experiment [1] deals with T1, KRAS-G12D (Homo sapiens, UniProt P01116, G12D).
T1 construct: endogenous in cells; host or cells: A-427 (ATCC), AGS, AsPc-1, Panc 04.03
Description: KRAS-G12D degradation assay (Western Blot), Panc 04.03 cells. The conditions noted are these: 24 h. As for the experimental part: (§1) The degradation effects of the compounds on KRAS-G12D were investigated on KRAS G12D mutant human lung cancer cell A-427 (ATCC), KRAS G12D mutant human gastric cancer cell AGS, KRAS G12D mutant human metastatic pancreatic cancer cell AsPc-1, and KRAS G12D mutant human pancreatic adenocarcinoma cell Panc 04.03. The specific procedures were as follows: 0.95 mL of cells were seeded into each well of a 24-well cell culture plate to achieve a cell density of 5×10^5 cells/well; and the cell plate was incubated in an incubator at 37° C. with 5% CO2 overnight. Then 50 μL of the compound solution after dilution was added to each of the wells with the corresponding cells, so that the final concentration of the compound was in a range of 0.03-3000 nM. The final concentration of DMSO was 0.25%. After the compounds were added, the cell plate was incubated in the incubator at 37° C. with 5% CO2 for 24 h. The culture medium in the 24-well cell culture plate was removed, and the plate was washed twice with 1×PBS (KeyGEN). 120 μL of RIPA (strong) lysis buffer (Beyotime) supplemented with 1 mM phenylmethylsulfonyl fluoride, a protease inhibitor mixture (Beyotime), and a protease phosphatase inhibitor mixture (Beyotime) was added to lyse adherent A-427 cells at the bottom of the cell culture plate. After the plate was left to stand on ice for 30 min, the protein lysate in each well was transferred to a 1.5 mL centrifuge tube and centrifuged at 15000 g for 20 min at 4° C. The cell lysate supernatants after centrifugation were cryopreserved in a refrigerator at −80° C. for later use.
(§2) After the samples of the cell lysate supernatants that had been prepared were thawed from the refrigerator at −80° C., the total protein concentrations of the cell lysates were determined using a BCA protein quantification kit (Tiangen). The total protein concentrations of the samples were then adjusted to 0.5 μg/μL with PBS and 5×SDS-PAGE protein loading buffer (Beyotime), and the samples were incubated in a water bath at 100° C. for 15 min. The samples were then incubated in an ice bath for 5 min and centrifuged at 14000 g for 1 min at 4° C., and the supernatants were mixed well as loading samples for the Western Blot assay. The samples were loaded into wells of a 10% precast gel (KeyGEN) with a loading volume of 10 μL (total protein: 5 μg), a sufficient Tris-MOPS-SDS running buffer (Adamas) was added, and then electrophoresis was performed at a constant voltage of 120 V for 55 min. After the electrophoresis, the proteins on the gel were transferred to PVDF membranes at a constant current of 250 mA for 55 min. After the membrane transfer, the PVDF membranes were incubated in 1× Quick Block blocking buffer (Beyotime) at room temperature for 30 min. After the blocking, the PVDF membranes were separately incubated at 4° C. overnight with the KRAS antibody (Abcam) diluted in a ratio of 1:1000 and the […] antibody (Abcam) diluted in a ratio of 1:2000 in 5% BSA as the diluent, and then washed with 1×TBST buffer (2.4 g of Tris, 8.8 g of NaCl, 1.5 mL of Tween 20, with pH adjusted to 7.4, with the volume brought to 1 L) 3 times for 10 min/time. The membranes were incubated with a secondary antibody (Abcam) diluted in 5% BSA at room temperature for 2 h, and then washed with 1×TBST buffer 3 times for 10 min/time. Finally, the membranes were incubated with Clarity Western ECL Substrate (BIO-RAD) for 5 min for luminescence and color development, and a ChemiScope 6200 Touch chemiluminescence imaging system (Clinx) was used for color development and protein mapping. Gray value analysis of the protein maps was performed using the chemiluminescence analysis software (Clinx). The gray correction value for each sample was calculated using the formula: gray correction value=(gray value of target protein/gray value of corresponding internal reference)×10^3. Then degradation rates were calculated by comparison with the gray correction value of the control group. […]
On the technique in general: In western blotting, separated proteins are transferred to a membrane and probed.

The target in experiment [2] is T1, KRAS-G12D. The experiment in a line: KRAS-G12D degradation assay (Western Blot), A-427 cells. Conditions: A427 cells, 24 h; for Dmax: A-427. The gist of the method: (§3)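 Each KRAS G12D mutant line (A-427, AGS, AsPc-1, Panc 04.03) was seeded at 5×10^5 cells/well and treated 24 h at 37 °C with 0.03–3000 nM compound (final DMSO 0.25%). KRAS in lysates was measured by Western blot, normalized to β-actin and compared with controls, giving DC50 and Dmax from curve fits.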

Experiment [3] deals with KRAS G12D mutant human metastatic pancreatic cancer cell AsPc-1. The experiment in a line: 3D cell proliferation inhibition assay, AsPc-1. Conditions: ASPC1, 168 h, AsPc-1, 7 days, CTG. The essentials:
(§4)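 CellTiter-Glo luminescence, read after 60 min at room temperature, measured growth of 3D cultures (5×10^2 cells/well) exposed for 7 days to compounds at final concentrations of 10000–0.026 nM in 0.2% DMSO. Percent inhibition, scaled between DMSO-treated cells and medium alone, was fitted against log concentration for IC50.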

Experiment [4] relates to KRAS G12D mutant human pancreatic cancer cell Panc 04.03. The experiment in a line: 3D cell proliferation inhibition assay, Panc 04.03. The conditions noted are these: 168 h, Panc 04.03, 7 days, CTG. The essentials: as §4
Experiment [5] has as its target T1, KRAS-G12D. The experiment in a line: KRAS-G12D degradation assay (Western Blot), AGS cells. Conditions: 24 h. As for the experimental part: as §1, §2
The target in experiment [6] is T1, KRAS-G12D. Description: KRAS-G12D degradation assay (Western Blot), AsPc-1 cells. The conditions noted are these: for DC50: 24 h; for Dmax: ASPC1, 24 h. The gist of the method: as §3
In experiment [7] the test system is KRAS G12D mutant human pancreatic cancer cell HPAC. The experiment in a line: 3D cell proliferation inhibition assay, HPAC. Conditions: 168 h, 7 days, CTG. The essentials: as §4
For experiment [8], the system named is KRAS G12D mutant human lung cancer cell A427. Description: 3D cell proliferation inhibition assay, A427. The conditions noted are these: A-427, 168 h, A427, 7 days, CTG. The gist of the method:
as §4

Experiment [9] has as its system KRAS G12D mutant human gastric cancer cell AGS. Description: 3D cell proliferation inhibition assay, AGS. Conditions: 168 h, 7 days, CTG. The essentials:
as §4

From patent US20260166159A1, “KRAS G12D DEGRADATION AGENT, AND PREPARATION METHOD AND USE THEREFOR” (LEADINGTAC PHARMACEUTICAL (SHAOXING) CO., LTD., priority 2022, published 2026) come the findings set out here.

As usually defined, the DC50 is the midpoint of the concentration-degradation curve. Higher therefore signals a less potent degrader. As usually defined, the Dmax is the largest share of the target that was removed. Low values mean shallow degradation, high ones deep degradation. As a reminder, the IC50 is the concentration that inhibits the measured activity by half. High values mean a need for much substance, low ones inhibition by little substance.

SMILES strings stand for the structures.

T1 sequence (P01116 1-188 isoform P01116-2 G12D): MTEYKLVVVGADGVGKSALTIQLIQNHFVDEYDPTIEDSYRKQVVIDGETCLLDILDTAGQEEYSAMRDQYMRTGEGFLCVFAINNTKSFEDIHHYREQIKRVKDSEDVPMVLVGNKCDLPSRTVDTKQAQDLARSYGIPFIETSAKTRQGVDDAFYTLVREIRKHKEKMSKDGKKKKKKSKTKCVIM

Take `CCc1cccc2cc(O)cc(-c3ncc4c(N5CC6CCC(C5)N6)nc(OCC5(CN6CCN(CC7CCC8(CC7)CCN(C(=O)c7ccc(Cl)c(N9CCC(=O)NC9=O)c7)CC8)CC6)CC5)nc4c3F)c12` [Example 50, 1-(5-(9-((4-((1-(((4-(3,8-diazabicyclo[3.2.1]octan-3-yl)-7-(8-ethyl-3-hydroxynaphthalen-1-yl)-8-fluoropyrido[4,3-d]pyrimidin-2-yl)oxy)methyl)cyclopropyl)methyl)piperazin-1-yl)methyl)-3-azaspiro [5.5]undecane-3-carbonyl)-2-chlorophenyl)dihydropyrimidine-2,4(1H,3H)-dione]: the half-maximal degradation concentration (DC50) at KRAS-G12D [1] is 31.9 nM; at KRAS-G12D [2] (class symbols), at most 50 nM; on KRAS-G12D [5], 1.73 nM; at KRAS-G12D [6], 33.1 nM. Moreover, the Dmax is 99.3% at KRAS-G12D [1], 80 to 100% at KRAS-G12D [2] (class symbols), 97.3% on KRAS-G12D [5] and 100% at KRAS-G12D [6]. The IC50 in [3] (class symbols) is at most 50 nM; in experiment [4] (class symbols), at most 50 nM; in experiment [7], 11.6 nM; in experiment [8] (class symbols) it was at most 50 nM; in experiment [9] (class symbols) it was at most 50 nM.
For `CCc1cccc2cc(O)cc(-c3ncc4c(N5CC6CCC(C5)N6)nc(OCC5(CN6CCN(CC7CCC8(CC7)CCN(C(=O)c7ccc(C)c(N9CCC(=O)NC9=O)c7)CC8)CC6)CC5)nc4c3F)c12` [Example 51, 1-(5-(9-((4-((1-(((4-(3,8-diazabicyclo[3.2.1]octan-3-yl)-7-(8-ethyl-3-hydroxynaphthalen-1-yl)-8-fluoropyrido[4,3-d]pyrimidin-2-yl)oxy)methyl)cyclopropyl)methyl)piperazin-1-yl)methyl)-3-azaspiro[5.5]undecane-3-carbonyl)-2-methylphenyl)dihydropyrimidine-2,4(1H,3H)-dione], the DC50 is 23 nM on KRAS-G12D [1], at most 50 nM at KRAS-G12D [2] (class symbols), 9.87 nM on KRAS-G12D [5] and 4.79 nM on KRAS-G12D [6]. For the same compound, the Dmax at KRAS-G12D [1] is 93.8%; at KRAS-G12D [2] (class symbols), 80 to 100%; at KRAS-G12D [5], 97.2%; on KRAS-G12D [6], 99.4%. Also, the IC50 in experiment [3] (class symbols) is at most 50 nM; in experiment [4] (class symbols) it was at most 50 nM; in [7], 4.55 nM; in experiment [8] (class symbols), at most 50 nM; in experiment [9] (class symbols) it was at most 50 nM.
As to `C#Cc1c(F)ccc2cc(O)cc(-c3ccc4c(N5CC6CCC(C5)N6)nc(OCC5(CN6CCN(CC7CCC8(CC7)CCN(C(=O)c7ccc(OC)c(N9CCC(=O)NC9=O)c7)CC8)CC6)CC5)nc4c3F)c12` [Example 71, 1-(5-(9-((4-((1-(((4-(3,8-diazabicyclo[3.2.1]octan-3-yl)-7-(8-ethynyl-7-fluoro-3-hydroxynaphthalen-1-yl)-8-fluoroquinazolin-2-yl)oxy)methyl)cyclopropyl)methyl)piperazin-1-yl)methyl)-3-azaspiro[5.5]undecane-3-carbonyl)-2-methoxyphenyl)dihydropyrimidine-2,4(1H,3H)-dione], the DC50 on KRAS-G12D [1] was found to be 11.9 nM; on KRAS-G12D [2] (numeric values) it was 2.1 nM; on KRAS-G12D [5], 7.02 nM; at KRAS-G12D [6] it was 4.76 nM. The Dmax at KRAS-G12D [1] amounted to 98.8%; on KRAS-G12D [2] (numeric values), 95%; on KRAS-G12D [5] it was 99.6%; at KRAS-G12D [6] it was 98.6%. In addition, the IC50 in experiment [3] (numeric values) was found to be 5.28 nM; in experiment [4] (numeric values), 16.7 nM; in experiment [7] it was 9.31 nM; in experiment [8] (numeric values), 46.8 nM; in experiment [9] (numeric values) it was 4.17 nM.
`CCc1c(F)ccc2cc(O)cc(-c3ccc4c(N5CC6CCC(C5)N6)nc(OCC5(CN6CCN(CC7CCC8(CC7)CCN(C(=O)c7ccc(OC)c(N9CCC(=O)NC9=O)c7)CC8)CC6)CC5)nc4c3F)c12` [Example 73, 1-(5-(9-((4-((1-(((4-(3,8-diazabicyclo[3.2.1]octan-3-yl)-7-(8-ethyl-7-fluoro-3-hydroxynaphthalen-1-yl)-8-fluoroquinazolin-2-yl)oxy)methyl)cyclopropyl)methyl)piperazin-1-yl)methyl)-3-azaspiro[5.5]undecane-3-carbonyl)-2-methoxyphenyl)dihydropyrimidine-2,4(1H,3H)-dione]: the half-maximal degradation concentration (DC50) at KRAS-G12D [1] was 27.1 nM; on KRAS-G12D [2] (numeric values) it was 19.8 nM; at KRAS-G12D [5], 16 nM; on KRAS-G12D [6], 35.7 nM. The Dmax is 95.6% on KRAS-G12D [1], 87.2% on KRAS-G12D [2] (numeric values), 85.7% at KRAS-G12D [5] and 100% on KRAS-G12D [6]. Further, the 50% inhibitory concentration (IC50) came out at 14.9 nM in experiment [3] (numeric values); 64.8 nM in [4] (numeric values); 14.7 nM in experiment [7]; 3.54 nM in experiment [8] (numeric values); 21.1 nM in experiment [9] (numeric values).
With `CCc1c(F)ccc2cc(O)cc(-c3ccc4c(N5CC6CCC(C5)N6)nc(OCC5(CN6CCN(CC7CCC8(CC7)CCN(C(=O)c7ccc(C)c(N9CCC(=O)NC9=O)c7)CC8)CC6)CC5)nc4c3F)c12` [Example 75, 1-(5-(9-((4-((1-(((4-(3,8-diazabicyclo[3.2.1]octan-3-yl)-7-(8-ethyl-7-fluoro-3-hydroxynaphthalen-1-yl)-8-fluoroquinazolin-2-yl)oxy)methyl)cyclopropyl)methyl)piperazin-1-yl)methyl)-3-azaspiro[5.5]undecane-3-carbonyl)-2-methylphenyl)dihydropyrimidine-2,4(1H,3H)-dione], the DC50 at KRAS-G12D [1] is 9.38 nM; on KRAS-G12D [2] (numeric values), 4.13 nM; on KRAS-G12D [5] it was 57.8 nM; at KRAS-G12D [6] it was 8.79 nM. For the same compound, the maximal degradation (Dmax) is 92% at KRAS-G12D [1], 83.8% at KRAS-G12D [2] (numeric values), 89.2% at KRAS-G12D [5] and 99.5% on KRAS-G12D [6]. In addition, the half-maximal inhibitory concentration (IC50) in experiment [3] (numeric values) was determined as 14.8 nM; in experiment [4] (numeric values) it was 83.9 nM; in [7] it was 11.3 nM; in experiment [8] (numeric values), 88.1 nM; in experiment [9] (numeric values), 9.1 nM.
